{
  "source": "paper PMC8682738",
  "about": "“Constrained peptides mimic a viral suppressor of RNA silencing” (Nucleic Acids Research, 2021)",
  "key": {"[1]": {"system": "pre-miR-21", "experiment": "Pull-down of pre-miR-21 from K562 cells", "format": "cell-based, human", "details": "biotinylated peptide 10 μM, streptavidin beads, qRT-PCR, triplicate", "protocol": "(§1) 2 × 10^6 K562 cells were incubated with N-terminally biotinylated peptides (c(peptide) = 10 μM, t = 2.5 h) for uptake on a rotating wheel at 37°C. The cells were extensively washed in PBS and lysed in lysis buffer (25 mM HEPES, pH 7.5, 150 mM NaCl, 0.05% IGEPAL CA-630, 1 mM EDTA) supplemented with 0.5 U/μl RNAse inhibitor (Superase-in, ThermoFisher). The lysate was cleared by centrifugation at 21 000 g at 4°C, an aliquot of the supernatant was removed and re-suspended in Trizol, while the remaining was incubated with streptavidin-coupled magnetic beads (Dynabeads M280, ThermoFisher) on a rotating wheel (2 h, 4°C). After magnetic separation and washing (3× in lysis buffer), the beads were re-suspended in 20 μl lysis buffer, re-suspended in Trizol (ThermoFisher), and 400 ng t-RNA was added per sample as a carrier. RNA was extracted from Trizol using the standard protocol and the qRT-PCR was performed according to a previously published protocol ([62]) using the primers h-miR21-3p-FW ([…]), h-miR21-3p-RV ([…]), h-miR21-5p-FW ([…]), h-miR21-5p-RV ([…]) in a CFX96 real-time machine (Bio-Rad). The relative enrichment was calculated as a ratio of copies in the immunoprecipitate over input normalized to the enrichment of the control peptide D1."}, "[2]": {"system": "Dicer processing of pre-miR-21", "experiment": "Dicer cleavage assay of pre-miR-21", "format": "biochemical", "details": "pre-miR-21 40 nM; for inhibition of pre-miR-21 maturation by Dicer (in words): Dicer 4 U·ml^−1, peptide 10–600 nM", "protocol": "Next, RhDicer (0.5 U·μl^−1 solution; Genlantis) was diluted in buffer (20 mM Tris·HCl, pH 6.8, 100 mM NaCl, 1 mM MgCl2, 1 mM DTT, 5 mM β-mercaptoethanol, 10% glycerol, 0.1% Triton-X 100) to a concentration of 40 U·ml^−1 and then added to the peptide/RNA solutions (final RhDicer concentration: 4 U·ml^−1). The reaction solution was incubated for 150 min at 37°C, then denatured for 5 min at 70°C, and stored at 4°C. Subsequently, a 1:10 dilution in H2O of the reaction solution was performed and added to a Poly(A) Tailing and reverse transcription solution as previously reported ([62]). The samples were incubated at 42°C for 1 h before subsequent inactivation for 5 min at 95°C and cooling to 4°C. Next, qRT-PCR of each sample was performed using the primers miR21–5p–RV1 ([…]), miR21-5p-FW1 ([…]), and miRNA-RT1 ([…]) in a StepOnePlus™ real-time PCR system (Thermo Fisher Scientific). Briefly, 1 μl of template DNA solution was added to a solution of Luna® Universal Probe qPCR Master Mix (New England Biolabs) with a final primer concentration of 125 nM in 20 μl per sample. Samples were initially denatured for 5 min at 95°C followed by 45 temperature cycles of 15 s at 95°C and 30 s at 66°C. The quantification was done using miR-21-5p standard curves. To visualize the inhibitory potential of each peptide the normalized abundance of mature miR-21 (%) is plotted against the peptide concentration (nM)."}, "[3]": {"system": "endogenous miR-21", "experiment": "Pull-down of miR-21 from K562 cells", "format": "cell-based, human", "details": "biotinylated peptide 10 μM, streptavidin beads, qRT-PCR, triplicate", "protocol": "as §1"}, "[4]": {"system": "ss-RNA miR-21 3´", "experiment": "EMSA with single-stranded RNA", "format": "binding", "details": "fluorescein-labeled peptide 3 μM, oligonucleotide 9 μM"}, "[5]": {"system": "pal-DNA", "experiment": "EMSA with ds DNA analog of pal-RNA", "format": "binding", "details": "fluorescein-labeled peptide 3 μM, oligonucleotide 9 μM", "protocol": "Electrophoretic mobility shift assays (EMSAs) were performed using a Bio-Rad Mini-Protean gel system paired with a direct current (DC) power source (PowerPac™ HC, Bio-Rad). […] After incubation, bound RNA was resolved from peptide-free RNA using 10% non-denaturing polyacrylamide gels at 120 V in running buffer (25 mM Tris (pH 8.0), 200 mM glycine, 20 mM NaCl) at 4°C for 1 h. Visualization of fluorescent gel-bound species was conducted using a Typhoon Trio + fluorescence scanner (GE Healthcare Life Sciences). For nucleic acid visualization, gels were stained using 2 μl of SYBR™ gold nucleic acid gel dye (Molecular Probes) in 20 ml of TAE buffer (40 mM Tris, 1 mM EDTA, 20 mM acetic acid) for 45 min at RT before being visualized using a FluorChem™ gel documentation system (Alpha Innotech). To assess B3 binding to different ds RNA sequences (Supplementary Figure S20), 6 μl solutions containing hairpin RNA (c = 1 μM) and fluorescein-labeled B3 (c = 2 μM) were incubated in binding buffer (TAE and 10% glycerol) at RT for 1 h, and then resolved using 15% non-denaturing polyacrylamide gels (acrylamide/bis-acrylamide (19:1) in TAE) at 150 V in running buffer (TAE) at 4°C for 1.5 h. Visualization of fluorescent gel-bound species was conducted using a Bio-Rad ChemiDoc (Bio-Rad). […]"}},
  "note": "Positions of bridges follow the written chain, without caps; N, C: chain ends. Non-standard residues stand in square brackets, D forms with d. Residues, ends and D or L forms follow the SMILES beside them. *: point of attachment. FITC = O=C1OC2(c3ccc(O)cc3Oc3cc(O)ccc32)c2ccc(NC(=S)*)cc21; R8 = C=CCCCCCC[C@@](C)(N)C(=O)O; S5 = C=CCCC[C@](C)(N)C(=O)O; AEEA = NCCOCCOCC(=O)O",
  "data": [
    {"smiles": "CC(C)C[C@H](NC(=O)[C@]1(C)CCCC=CCCC[C@](C)(NC(=O)[C@H](CCC(=O)O)NC(=O)[C@H](CO)NC(=O)[C@@H]2CCCN2C(=O)[C@H](CO)NC(=O)[C@H](CCCCN)NC(=O)[C@H](Cc2c[nH]cn2)NC(=O)CNC(=O)[C@H](CCCNC(=N)N)NC(=O)[C@]2(C)CCCC=CCCC[C@](C)(NC(=O)[C@H](CCCCN)NC(=O)[C@H](Cc3c[nH]cn3)NC(=O)[C@H](CCCNC(=N)N)NC(=O)[C@H](CCCCN)NC(=O)[C@H](CCCNC(=N)N)NC(=O)[C@H](CCC(N)=O)NC(=O)[C@H](C)NC(=O)[C@H](CCC(N)=O)NC(=O)[C@H](CCCCN)NC(=O)[C@H](CCCCN)NC(=O)COCCOCCNC(=S)Nc3ccc4c(c3)C(=O)OC43c4ccc(O)cc4Oc4cc(O)ccc43)C(=O)N[C@@H](CC(N)=O)C(=O)N[C@@H](CCCNC(=N)N)C(=O)N[C@@H](CCCCN)C(=O)N2)C(=O)N[C@@H](CCCNC(=N)N)C(=O)N[C@@H](CCCNC(=N)N)C(=O)N[C@@H](CO)C(=O)N1)C(=O)N[C@@H](Cc1c[nH]c2ccccc12)C(=O)N[C@@H](Cc1c[nH]cn1)C(=O)N[C@@H](C)C(=O)N[C@@H](CCCNC(=N)N)C(N)=O", "note": "[B3] ({FITC-AEEA}-KKQAQRKRHK[S5]NRK[S5]RGHKSPSE[S5]RRS[S5]LWHAR-NH2; staple 11-15, 24-28)", "values": [
      {"measurement": "enrichment of pre-miR-21 relative to control peptide D1", "setting": "[1]", "value": 4, "unit": "fold"},
      {"measurement": "inhibition of pre-miR-21 maturation by Dicer (in words)", "setting": "[2]", "value": "inhibited in a concentration-dependent manner"},
      {"measurement": "IC50", "setting": "[2]; recombinant Dicer 4 U·ml^−1, 150 min, 37°C, N-terminally acetylated peptide, qRT-PCR of miR-21, triplicate, read-out: Half-maximal Dicer inhibition", "value": "~0.05", "unit": "µM"},
      {"measurement": "enrichment of miR-21 relative to control peptide D1", "setting": "[3]", "value": 35, "unit": "fold"},
      {"measurement": "binding to single-stranded RNA in EMSA", "setting": "[4]", "value": "did not bind"},
      {"measurement": "binding to ds DNA analog of pal-RNA in EMSA", "setting": "[5]", "value": "did not bind"}
    ]},
    {"smiles": "CC(C)C[C@@H]1NC(=O)[C@@](C)(NC(=O)[C@H](CO)NC(=O)[C@H](CCCNC(=N)N)NC(=O)[C@H](CCCNC(=N)N)NC(=O)[C@H](CCC(N)=O)NC(=O)[C@H](CCC(=O)O)NC(=O)[C@H](CO)NC(=O)[C@@H]2CCCN2C(=O)[C@H](CO)NC(=O)[C@H](CCCCN)NC(=O)[C@H](Cc2c[nH]cn2)NC(=O)CNC(=O)[C@H](CCCNC(=N)N)NC(=O)[C@H](CCC(=O)O)NC(=O)[C@H](CCCCN)NC(=O)[C@H](CCCNC(=N)N)NC(=O)[C@H](CC(N)=O)NC(=O)[C@]2(C)CCCC=CCCCCCC[C@@](C)(NC(=O)[C@H](CCC(N)=O)NC(=O)[C@H](CCCCN)NC(=O)[C@H](CCCCN)NC(=O)COCCOCCNC(=S)Nc3ccc4c(c3)C(=O)OC43c4ccc(O)cc4Oc4cc(O)ccc43)C(=O)N[C@@H](CCC(N)=O)C(=O)N[C@@H](CCCNC(=N)N)C(=O)N[C@@H](CCCCN)C(=O)N[C@@H](CCCNC(=N)N)C(=O)N[C@@H](Cc3c[nH]cn3)C(=O)N[C@@H](CCCCN)C(=O)N2)CCCC=CCCC[C@@](C)(C(=O)N[C@@H](CCCNC(=N)N)C(N)=O)NC(=O)[C@H](Cc2c[nH]cn2)NC(=O)[C@H](Cc2c[nH]c3ccccc23)NC1=O", "note": "[C1] ({FITC-AEEA}-KKQ[R8]QRKRHK[S5]NRKERGHKSPSEQRRS[S5]LWH[S5]R-NH2; staple 4-11, 28-32)", "values": [
      {"measurement": "enrichment of pre-miR-21 relative to control peptide D1", "setting": "[1]", "value": "did not show detectable pre-miR-21 enrichment"},
      {"measurement": "enrichment of miR-21 relative to control peptide D1", "setting": "[3]", "value": "enrichment"},
      {"measurement": "binding to single-stranded RNA in EMSA", "setting": "[4]", "value": "did not bind"},
      {"measurement": "binding to ds DNA analog of pal-RNA in EMSA", "setting": "[5]", "value": "did not bind"}
    ]},
    {"smiles": "CC(C)C[C@@H]1NC(=O)[C@H](CCC(=O)O)NC(=O)[C@H](CO)NC(=O)[C@@](C)(NC(=O)[C@H](CCCNC(=N)N)NC(=O)[C@H](CCC(N)=O)NC(=O)[C@H](CCC(=O)O)NC(=O)[C@H](CO)NC(=O)[C@@H]2CCCN2C(=O)[C@H](CO)NC(=O)[C@H](CCCCN)NC(=O)[C@H](Cc2c[nH]cn2)NC(=O)[C@]2(C)CCCC=CCCCCCC[C@@](C)(NC(=O)[C@H](Cc3c[nH]cn3)NC(=O)[C@H](CCCNC(=N)N)NC(=O)[C@H](CCCCN)NC(=O)[C@H](CCCNC(=N)N)NC(=O)[C@H](CCC(N)=O)NC(=O)[C@H](C)NC(=O)[C@H](CCC(N)=O)NC(=O)[C@H](CCCCN)NC(=O)[C@H](CCCCN)NC(=O)COCCOCCNC(=S)Nc3ccc4c(c3)C(=O)OC43c4ccc(O)cc4Oc4cc(O)ccc43)C(=O)N[C@@H](CC(C)C)C(=O)N[C@@H](CC(N)=O)C(=O)N[C@@H](CCCNC(=N)N)C(=O)N[C@@H](CCCCN)C(=O)N[C@@H](CCC(=O)O)C(=O)N[C@@H](CCCNC(=N)N)C(=O)N2)CCCC=CCCC[C@@](C)(C(=O)N[C@@H](Cc2c[nH]cn2)C(=O)N[C@@H](C)C(=O)N[C@@H](CCCNC(=N)N)C(N)=O)NC1=O", "note": "[D1] ({FITC-AEEA}-KKQAQRKRH[R8]LNRKER[S5]HKSPSEQR[S5]SEL[S5]HAR-NH2; staple 10-17, 26-30)", "values": [
      {"measurement": "inhibition of pre-miR-21 maturation by Dicer (in words)", "setting": "[2]", "value": "showed only small effects"}
    ]}
  ]
}
